Measured values as given in patent US9969732B2, “Tetrahydroisoquinoline estrogen receptor modulators and uses thereof” (Genentech, Inc., priority 2016, dated 2018).

Molecular target: T1, ER-alpha (WT) (Homo sapiens, UniProt P03372)
T1 construct: endogenous in cells; host or cells: MCF7 breast cancer cells
T1 sequence (P03372 1-595): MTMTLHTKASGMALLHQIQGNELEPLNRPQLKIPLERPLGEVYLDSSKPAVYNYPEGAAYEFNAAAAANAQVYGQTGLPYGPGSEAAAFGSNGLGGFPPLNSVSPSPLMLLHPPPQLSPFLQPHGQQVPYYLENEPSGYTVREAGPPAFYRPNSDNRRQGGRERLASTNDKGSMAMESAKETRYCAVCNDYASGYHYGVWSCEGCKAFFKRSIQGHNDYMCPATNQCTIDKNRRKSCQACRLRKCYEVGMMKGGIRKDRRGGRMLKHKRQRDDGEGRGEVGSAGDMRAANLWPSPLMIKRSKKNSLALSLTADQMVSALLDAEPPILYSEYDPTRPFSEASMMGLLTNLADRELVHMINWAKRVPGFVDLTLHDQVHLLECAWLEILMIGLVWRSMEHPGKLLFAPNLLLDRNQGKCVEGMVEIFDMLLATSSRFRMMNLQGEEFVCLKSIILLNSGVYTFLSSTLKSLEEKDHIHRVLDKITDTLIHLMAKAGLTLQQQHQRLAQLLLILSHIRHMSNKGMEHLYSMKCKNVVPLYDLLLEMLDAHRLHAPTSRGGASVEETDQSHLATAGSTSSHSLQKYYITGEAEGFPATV
Test: Breast Cancer Cell ERa High Content Fluorescence Imaging Degradation Assay (MCF7 HCS)
Type: cell-based
Conditions: MCF7 breast cancer cells, 4 hours incubation; for EC50: inflexion point of curve; for ERalpha (WT) MCF7 HCS (S inf): plateau of the maximal effect, DMSO and Fulvestrant define 0% and 100% changes in ESR1
Description: MCF7 breast cancer cells were seeded on day 1 at a density of 10,000 cells per well in 384 well poly-lysine coated tissue culture plate (Greiner #T-3101-4), in 50 μL/well RPMI (phenol red free), 10% FBS (Charcoal stripped), containing L-glutamine. […] Compounds and controls were dispensed using a Labcyte Echo acoustic dispenser to dispense compounds with a predefined serial dilution (1.8×, 10 point, in duplicate) and appropriate backfill and control compounds (final total volume transferred was 417.5 nL and compound dispense volume ranges from 2.5 nL to 417.5 nL; 0.84% DMSO (v/v) final), ultimately producing a concentration range from 0.05 nM to 835 nM. Cell plates were incubated at 37° C., for 4 hours. Fixation and permeabilization were carried out using a Biotek EL406 plate washer and dispenser as follows. Cells were fixed by addition of 15 μL of 16% paraformaldehyde (Electron Microscopy Sciences #15710-S) directly to the 50 μL cell culture medium in each well using the peristaltic pump 5 μL cassette on a Biotek EL406 (final concentration of formaldehyde was 3.7% w/v). Samples were incubated 30 minutes. Well contents was aspirated and 50 μL/well of Phosphate Buffered Saline (PBS) containing 0.5% w/v bovine serum albumen, 0.5% v/v Triton X-100 (Antibody Dilution Buffer) was added to each well. Samples were incubated for 30 minutes. Well contents were aspirated and washed 3 times with 100 μL/well of PBS. Immunofluorescence staining of estrogen receptor alpha (ESR1) was carried out using a Biotek EL406 plate washer and dispenser as follows. The well supernatant was aspirated from the wells and 25 μL/well of anti-ESR1 mAb (F10) (Santa Cruz sc-8002) diluted 1:1000 in Antibody Dilution Buffer was dispensed. Samples were incubated for 2 hours at room temperature. Samples were washed 4 times with 100 μL/well of PBS. 25 μL (microliters)/well of secondary antibody solution (Alexafluor® 488 conjugate anti-mouse IgG (LifeTechnologies #A21202) diluted 1:1000 and Hoechst 33342 1 μg/mL diluted in Antibody Dilution Buffer) were dispensed into each well. Samples were incubated for 2 hours at room temperature. Samples were washed 3 times with 100 μL/well of PBS using a Biotek EL406. Quantitative fluorescence imaging of ESR1 was carried out using a Cellomics Arrayscan V® (Thermo). Fluorescence images of the samples (Channel 1: XF53 Hoechst (DNA stain); Channel 2: XF53 FITC (ESR1 stain)) were acquired using a Cellomics VTI Arrayscan using the Bioapplication “Compartmental Analysis” using the auto-exposure (based on DMSO control wells) setting “peak target percentile” set to 25% target saturation for both channels. Channel 1 (DNA stain) was used to define the nuclear region (Circ). Measurements of “Mean_CircAvgIntCh2”, which is the Alexafluor 488 fluorescence intensity (ESR1) within the nuclear region, was measured on a per cell basis and averaged over all the measured cells. Data analysis was carried out using Genedata Screener Software, with DMSO and 5 nM Fulvestrant treated samples being used to define the 0% and 100% changes in ESR1. The “Robust Fit” method was used to define the inflexion point of curve (EC50) and the plateau of the maximal effect (Sinf).

SMILES | EC50 | ERalpha (WT) MCF7 HCS (S inf)
CC(=O)c1ccc2c(c1)C[C@@H](C)N(CC(F)(F)CO)[C@@H]2c1ccc(OCCN2CC(CF)C2)cc1 (single isomer, unassigned) [Example 175] | 0.168 nM | −97%
CC1(C)Cc2cc(O)ccc2[C@H](c2ccc(OCCN3CC(CF)C3)cc2)N1CC(F)(F)F [Example 157, (S)-1-(4-(2-(3-(Fluoromethyl)azetidin-1-yl)ethoxy)phenyl)-3,3-dimethyl-2-(2,2,2-trifluoroethyl)-1,2,3,4-tetrahydroisoquinolin-6-ol] | 0.48 nM | −98%
CC(C)(F)CN1CCc2cc(O)ccc2[C@]1(C)c1ccc(OCCN2CC(CF)C2)cc1 (single isomer, unassigned) [Example 107] | 3.22 nM | −97%
C[C@@H]1Cc2cc(C(=O)O)ccc2[C@@H](c2ccc(OCCN3CC(CF)C3)cc2)N1CC(F)(F)F (single isomer, unassigned) [Example 164] | 1.3 nM | −100%
CC1(c2ccc(OCCN3CC(CF)C3)cc2)c2ccc(O)cc2CCN1S(C)(=O)=O (stereo not shown) [Example 111, 1-[4-[2-[3-(fluoromethyl)azetidin-1-yl]ethoxy]phenyl]-1-methyl-2-methylsulfonyl-3,4-dihydroisoquinolin-6-ol] | ≥ 100 nM | –
C[C@H]1Cc2cc(CO)ccc2[C@H](c2ccc(OCCN3CC(CF)C3)cc2)N1CC(F)(F)F (single isomer, unassigned) [Example 160] | 19 nM | −88%
C[C@@H](CN1CCc2cc(O)ccc2[C@@]1(C)c1ccc(OCCN2CC(CF)C2)cc1)C(=O)O [Example 136, (S)-3-((R)-1-(4-(2-(3-(fluoromethyl)azetidin-1-yl)ethoxy)phenyl)-6-hydroxy-1-methyl-3,4-dihydroisoquinolin-2(1H)-yl)-2-methylpropanoic acid] | ≥ 100 nM | –
C[C@H]1Cc2cc(O)ccc2[C@@H](c2ccc(OCCN3CC(CF)C3)cc2)N1S(C)(=O)=O [Example 115, (1R,3S)-1-[4-[2-[3-(fluoromethyl)azetidin-1-yl]ethoxy]phenyl]-3-methyl-2-methylsulfonyl-3,4-dihydro-1H-isoquinolin-6-ol] | 61.4 nM | −53%
C[C@@]1(c2ccc(OCCN3CC(CF)C3)cc2)c2ccc(O)cc2CCN1CC(F)(F)CO [Example 130, (R)-2-(2,2-difluoro-3-hydroxypropyl)-1-(4-(2-(3-(fluoromethyl)azetidin-1-yl)ethoxy)phenyl)-1-methyl-1,2,3,4-tetrahydroisoquinolin-6-ol] | 0.042 nM | −101%
OCc1ccc2c(c1)CCN(CC(F)(F)F)[C@@H]2c1ccc(OCCN2CC(CF)C2)cc1 [Example 150, [(1R)-1-[4-[2-[3-(fluoromethyl)azetidin-1-yl]ethoxy]phenyl]-2-(2,2,2-trifluoroethyl)-3,4-dihydro-1H-isoquinolin-6-yl]methanol] | 1.7 nM | −100%
C[C@H]1Cc2cc(CO)ccc2[C@H](c2ccc(NC3CN(CCCF)C3)cc2)N1CC(F)(F)F (single isomer, unassigned) [Example 169] | 37 nM | −60%
C[C@@H]1CCN(CCOc2ccc([C@@]3(C)c4ccc(O)cc4CCN3CC(C)(C)F)cc2)C1 [Example 125, (S)-2-(2-fluoro-2-methylpropyl)-1-methyl-1-(4-(2-((R)-3-methylpyrrolidin-1-yl)ethoxy)phenyl)-1,2,3,4-tetrahydroisoquinolin-6-ol] | 7.4 nM | −57%
Oc1ccc2c(c1)CCN(CC(F)(F)F)[C@H]2c1ccc(OCCN2CC(CF)C2)cc1 (single isomer, unassigned) [Example 153] | 0.54 nM | −99%
C[C@H]1Cc2cc(C(=O)O)ccc2[C@H](c2ccc(OCCN3CC(CF)C3)cc2)N1CC(F)(F)F (single isomer, unassigned) [Example 163] | 11 nM | −92%
CC(=O)c1ccc2c(c1)C[C@H](C)N(CC(F)(F)CO)[C@H]2c1ccc(OCCN2CC(CF)C2)cc1 [Example 176, 1-((1S,3S)-2-(2,2-Difluoro-3-hydroxypropyl)-1-(4-(2-(3-(fluoromethyl)azetidin-1-yl)ethoxy)phenyl)-3-methyl-1,2,3,4-tetrahydroisoquinolin-6-yl)ethanone] | > 100 nM | –
CC(C)(F)C(=O)N1CCc2cc(O)ccc2[C@@H]1c1ccc(OCCN2CC(CF)C2)cc1 (single isomer, unassigned) [Example 103] | 100 nM | –
Oc1ccc2c(c1)CCN(c1ccccc1)C2c1ccc(OCCN2CC(CF)C2)cc1 (stereo not shown) [Example 101, 1-[4-[2-[3-(fluoromethyl)azetidin-1-yl]ethoxy]phenyl]-2-phenyl-3,4-dihydro-1H-isoquinolin-6-ol] | 0.21 nM | −99%
C[C@@H]1Cc2cc(C(C)(C)O)ccc2[C@@H](c2ccc(OCCN3CC(CF)C3)cc2)N1CC(F)(F)F [Example 161, 2-((1R,3R)-1-(4-(2-(3-(Fluoromethyl)azetidin-1-yl)ethoxy)phenyl)-3-methyl-2-(2,2,2-trifluoroethyl)-1,2,3,4-tetrahydroisoquinolin-6-yl)propan-2-ol] | 11 nM | −82%
C[C@@H]1Cc2cc(O)ccc2[C@@H](c2ccc(OCCN3CC(CF)C3)cc2)N1CC(F)(F)F (single isomer, unassigned) [Example 132] | 0.011 nM | −97%
C[C@@H]1CN(S(C)(=O)=O)[C@@H](c2ccc(OCCN3CC(CF)C3)cc2)c2ccc(O)cc21 (single isomer, unassigned) [Example 119] | ≥ 100 nM | –
CC(C)(F)CN1CCc2cc(O)ccc2[C@]1(c1ccc(OCCN2CC(CF)C2)cc1)C(F)F (single isomer, unassigned) [Example 128] | 0.075 nM | −95%
CC1Cc2c(ccc3c2cnn3CC(C)(C)F)C(c2c(F)cc(OCCN3CC(CF)C3)cc2F)N1CC(C)(C)F (stereo not shown) [Example 122, 6-(2,6-difluoro-4-(2-(3-(fluoromethyl)azetidin-1-yl)ethoxy)phenyl)-3,7-bis(2-fluoro-2-methylpropyl)-8-methyl-6,7,8,9-tetrahydro-3H-pyrazolo[4,3-f]isoquinoline] | 25.2 nM | −62%
C[C@H]1Cc2cc(S(N)(=O)=O)ccc2[C@H](c2ccc(OCCN3CC(CF)C3)cc2)N1CC(F)(F)CO (single isomer, unassigned) [Example 174] | 63 nM | −50%
C[C@H]1Cc2cc(O)ccc2[C@H](c2ccc(OCCN3CC(CF)C3)cc2)N1CC(F)(F)CO [Example 165, (1S,3S)-2-(2,2-Difluoro-3-hydroxypropyl)-1-(4-(2-(3-(fluoromethyl)azetidin-1-yl)ethoxy)phenyl)-3-methyl-1,2,3,4-tetrahydroisoquinolin-6-ol] | 0.96 nM | −101%
